# Laboratory results reported in patent publication US7291627B2, “Dihydroimidazo[5.1-a]-beta-carboline derivatives, method for their preparation, and their application as a drug” (MACEF, priority 2001, dated 2007).
# Legend:
# [1] = tested on: JA 657 chicks; assay: Chick sleep/sedation test (IM injection, 90 minute observation); format: in vivo; details: for Sed (sedation time as % of the period) / TA (time to torpor between injection and first stage of sleep) / TS (duration of the first sleep) / Tsed (total sedation time over the period): 90 min observation; for TS (mins) Placebo diff'ce: extension of first sleep compared with test controls
# Summary of the method: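 JA 657 chicks (~100 g, 12 h light/dark cycle, 25 °C) received 1, 3 or 10 mg/kg IM, two batches of 3 per dose, with water-injected controls. Alertness was scored in 5-min blocks over 90 min with feeding stimulation every 15 min. Recorded measures were time to torpor, first-sleep duration (also as prolongation versus controls) and total sedation time.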
# [2] = tested on: Beagle dogs; assay: Polysomnographic study in the dog (EEG, 4 hours after oral gelule); format: in vivo; details: for Latency: Paradoxal (REM) sleep / Latency: Slow wave sleep (SWS) / Latency: Somnolence / Time passed at stage: Alertness / Time passed at stage: REM / Time passed at stage: SWS / Time passed at stage: Somnolence: oral gelule; for Time passed at stage: Alertness / Time passed at stage: REM / Time passed at stage: SWS / Time passed at stage: Somnolence: four hours of monitoring
# Method: The dihydroimidazo[5,1-a]-β-carboline derivatives of the invention, in particular those in the form of the methyl sulfonate, (soluble), were tested in chicks, and certain compounds that were active in the chick were administered in single doses to six Beagle dogs of both sexes for a polysomnographic study of at least 4 hours duration.
# Polysomnographic tests were carried out for each of the three products from the series, on 6 dogs of both sexes, adults from the certified breeding kennels at HARLAN, 03 Gannat, using stainless steel electrodes surgically implanted for the duration of the test in contact with the frontal bones through the sinus, facing the motor regions of the encephalus. The Nishino et al method adapted by Tafani, Valin et al has been described elsewhere. It comprised recording two traces for eye movements, one trace for muscular movements (concentric electrode in the nape muscles) and two electroencephalographic (EEG) traces. The digital EEG trace was recorded using a Nicollet Schwarzer polygraph or the like (DELTAMED Coherence 2 and 3, MEI Galileo NT) for 4 hours after administering a 00 gelule containing 0, 16 or 48 mg of the test product (i.e. a mean of 0,1 and 3 mg/kg of live weight).
# Each dog was monitored for 4 hours twice a day over two days, morning and afternoon, after one week's acclimatization to the monitoring cage, a 1 m^2, 80 cm high stainless steel cage of the SHOR-LINE type. For each dog, monitoring always commenced at the same time. A meal was distributed 30 minutes before starting monitoring.
# The polysomnographic traces could differentiate between at least 4 stages for each consecutive 30 second period: awake, somnolence, slow sleep and paradoxal sleep. The latency of the appearance of each of the first nonalert episodes and the duration of each of the stages per 2 hour period were recorded for each dog. Comparing the means allowed the effect of the test products on the sleep microstructure to be studied.
smiles,measurement,setting,value
"COc1ccc2[nH]c3c(c2c1)CCn1c-3cnc1C.CS(=O)(=O)O [Example 2, 8-methoxy-3-methyl-5,6-dihydroimidazo[5,1-a]-β-carboline methane sulfonate]",Sed (sedation time as % of the period),[1]; Dose: 1 mg/kg,27.8%
same,TA (time to torpor between injection and first stage of sleep),[1]; Dose: 1 mg/kg,16 min
same,TS (duration of the first sleep),[1]; Dose: 1 mg/kg,3 min
same,Tsed (total sedation time over the period),[1]; Dose: 1 mg/kg,25 min
same,TS (mins) Placebo diff'ce,[1]; Dose: 1 mg/kg,3 min
same,Sed (sedation time as % of the period),[1]; Dose: 3 mg/kg,69.4%
same,TA (time to torpor between injection and first stage of sleep),[1]; Dose: 3 mg/kg,8.5 min
same,TS (duration of the first sleep),[1]; Dose: 3 mg/kg,41 min
same,Tsed (total sedation time over the period),[1]; Dose: 3 mg/kg,62.5 min
same,TS (mins) Placebo diff'ce,[1]; Dose: 3 mg/kg,41 min
same,Sed (sedation time as % of the period),[1]; Dose: 10 mg/kg,92.2%
same,TA (time to torpor between injection and first stage of sleep),[1]; Dose: 10 mg/kg,7 min
same,TS (duration of the first sleep),[1]; Dose: 10 mg/kg,83 min
same,Tsed (total sedation time over the period),[1]; Dose: 10 mg/kg,83 min
same,TS (mins) Placebo diff'ce,[1]; Dose: 10 mg/kg,83 min
same,Latency: Paradoxal (REM) sleep,[2]; 1 mg,114 ± 53 min
same,Latency: Slow wave sleep (SWS),[2]; 1 mg,44 ± 16.3 min
same,Latency: Somnolence,[2]; 1 mg,40 ± 14.7 min
same,Time passed at stage: Alertness,[2]; 1 mg,136 ± 40.3 min
same,Time passed at stage: REM,[2]; 1 mg,13.5 ± 10.6 min
same,Time passed at stage: SWS,[2]; 1 mg,59 ± 20.5 min
same,Time passed at stage: Somnolence,[2]; 1 mg,31 ± 4.6 min
same,Latency: Paradoxal (REM) sleep,[2]; 3 mg,63 ± 21.1 min
same,Latency: Slow wave sleep (SWS),[2]; 3 mg,45 ± 5.4 min
same,Latency: Somnolence,[2]; 3 mg,37 ± 6.7 min
same,Time passed at stage: Alertness,[2]; 3 mg,123 ± 30.5 min
same,Time passed at stage: REM,[2]; 3 mg,20 ± 9.5 min
same,Time passed at stage: SWS,[2]; 3 mg,60 ± 26.9 min
same,Time passed at stage: Somnolence,[2]; 3 mg,36 ± 15.4 min
"CS(=O)(=O)O.Cc1ncc2n1CCc1c-2[nH]c2ccc(Cl)cc12 [Example 13, 8-chloro-3-methyl-5,6-dihydroimidazo[5,1-a]-β-carboline methane sulfonate]",Sed (sedation time as % of the period),[1]; Dose: 1 mg/kg,57.8%
same,TA (time to torpor between injection and first stage of sleep),[1]; Dose: 1 mg/kg,16.5 min
same,TS (duration of the first sleep),[1]; Dose: 1 mg/kg,33.5 min
same,Tsed (total sedation time over the period),[1]; Dose: 1 mg/kg,52 min
same,TS (mins) Placebo diff'ce,[1]; Dose: 1 mg/kg,33 min
same,Sed (sedation time as % of the period),[1]; Dose: 3 mg/kg,81.1%
same,TA (time to torpor between injection and first stage of sleep),[1]; Dose: 3 mg/kg,9.5 min
same,TS (duration of the first sleep),[1]; Dose: 3 mg/kg,73 min
same,Tsed (total sedation time over the period),[1]; Dose: 3 mg/kg,73 min
same,TS (mins) Placebo diff'ce,[1]; Dose: 3 mg/kg,73 min
same,Sed (sedation time as % of the period),[1]; Dose: 10 mg/kg,95.6%
same,TA (time to torpor between injection and first stage of sleep),[1]; Dose: 10 mg/kg,4 min
same,TS (duration of the first sleep),[1]; Dose: 10 mg/kg,86 min
same,Tsed (total sedation time over the period),[1]; Dose: 10 mg/kg,86 min
same,TS (mins) Placebo diff'ce,[1]; Dose: 10 mg/kg,85.7 min
same,Latency: Paradoxal (REM) sleep,[2]; 1 mg,63 ± 28.2 min
same,Latency: Slow wave sleep (SWS),[2]; 1 mg,32 ± 11.5 min
same,Latency: Somnolence,[2]; 1 mg,25 ± 11.6 min
same,Time passed at stage: Alertness,[2]; 1 mg,135 ± 44.3 min
same,Time passed at stage: REM,[2]; 1 mg,21 ± 13.6 min
same,Time passed at stage: SWS,[2]; 1 mg,57 ± 26.5 min
same,Time passed at stage: Somnolence,[2]; 1 mg,24 ± 2.6 min
same,Latency: Paradoxal (REM) sleep,[2]; 3 mg,56 ± 19.5 min
same,Latency: Slow wave sleep (SWS),[2]; 3 mg,35 ± 11 min
same,Latency: Somnolence,[2]; 3 mg,27 ± 9.1 min
same,Time passed at stage: Alertness,[2]; 3 mg,122 ± 36.5 min
same,Time passed at stage: REM,[2]; 3 mg,26 ± 13.5 min
same,Time passed at stage: SWS,[2]; 3 mg,61 ± 24.9 min
same,Time passed at stage: Somnolence,[2]; 3 mg,31 ± 7 min
"CS(=O)(=O)O.Cc1ncc2n1CCc1c-2n(C)c2ccccc12 [Example 1, 3,11-dimethyl-5,6-dihydroimidazo[5,1-a]-β-carboline methane sulfonate]",Sed (sedation time as % of the period),[1]; Dose: 1 mg/kg,71.7%
same,TA (time to torpor between injection and first stage of sleep),[1]; Dose: 1 mg/kg,7 min
same,TS (duration of the first sleep),[1]; Dose: 1 mg/kg,56.5 min
same,Tsed (total sedation time over the period),[1]; Dose: 1 mg/kg,64.5 min
same,TS (mins) Placebo diff'ce,[1]; Dose: 1 mg/kg,56 min
same,Sed (sedation time as % of the period),[1]; Dose: 3 mg/kg,87.2%
same,TA (time to torpor between injection and first stage of sleep),[1]; Dose: 3 mg/kg,4.5 min
same,TS (duration of the first sleep),[1]; Dose: 3 mg/kg,78.5 min
same,Tsed (total sedation time over the period),[1]; Dose: 3 mg/kg,78.5 min
same,TS (mins) Placebo diff'ce,[1]; Dose: 3 mg/kg,78 min
same,Sed (sedation time as % of the period),[1]; Dose: 10 mg/kg,96.7%
same,TA (time to torpor between injection and first stage of sleep),[1]; Dose: 10 mg/kg,1 min
same,TS (duration of the first sleep),[1]; Dose: 10 mg/kg,86 min
same,Tsed (total sedation time over the period),[1]; Dose: 10 mg/kg,87 min
same,TS (mins) Placebo diff'ce,[1]; Dose: 10 mg/kg,85.7 min
same,latency of the first somnolence (in words),"[2]; 1 and 3 mg/kg, versus placebo",clearer in the 3 mg/kg dose
same,Latency: Paradoxal (REM) sleep,[2]; 1 mg,101 ± 80.3 min
same,Latency: Slow wave sleep (SWS),[2]; 1 mg,52 ± 24.8 min
same,Latency: Somnolence,[2]; 1 mg,47 ± 19.1 min
same,Time passed at stage: Alertness,[2]; 1 mg,139 ± 69.1 min
same,Time passed at stage: REM,[2]; 1 mg,23 ± 19.1 min
same,Time passed at stage: SWS,[2]; 1 mg,51 ± 42.3 min
same,Time passed at stage: Somnolence,[2]; 1 mg,27 ± 10.4 min
same,Latency: Paradoxal (REM) sleep,[2]; 3 mg,50 ± 22.2 min
same,Latency: Slow wave sleep (SWS),[2]; 3 mg,27 ± 8.0 min
same,Latency: Somnolence,[2]; 3 mg,21 ± 7.1 min
same,Time passed at stage: Alertness,[2]; 3 mg,106 ± 34.7 min
same,Time passed at stage: REM,[2]; 3 mg,29 ± 13.7 min
same,Time passed at stage: SWS,[2]; 3 mg,65 ± 30.2 min
same,Time passed at stage: Somnolence,[2]; 3 mg,40 ± 10.9 min
